Data: ChEMBL document CHEMBL3991601, “The target landscape of clinical kinase drugs” (Science, 2017)
The source made the active and inactive calls. Rule as the data show it, for most assays here: actives have a measured Kd and inactives only a lower limit.

Key:
[1] = target: Adenosine kinase (Homo sapiens, UniProt P55263)
[2] = target: Serine/threonine-protein kinase B-raf (Homo sapiens, UniProt P15056)
[3] = target: Calcium/calmodulin-dependent protein kinase kinase 2 (Homo sapiens, UniProt Q96RR4)
[4] = target: Ephrin type-A receptor 2 (Homo sapiens, UniProt P29317)
[5] = target: Ephrin type-A receptor 4 (Homo sapiens, UniProt P54764)
[6] = target: T1, Dual specificity mitogen-activated protein kinase kinase 5 (Homo sapiens, UniProt Q13163)
T1 sequence (Q13163 whole entry): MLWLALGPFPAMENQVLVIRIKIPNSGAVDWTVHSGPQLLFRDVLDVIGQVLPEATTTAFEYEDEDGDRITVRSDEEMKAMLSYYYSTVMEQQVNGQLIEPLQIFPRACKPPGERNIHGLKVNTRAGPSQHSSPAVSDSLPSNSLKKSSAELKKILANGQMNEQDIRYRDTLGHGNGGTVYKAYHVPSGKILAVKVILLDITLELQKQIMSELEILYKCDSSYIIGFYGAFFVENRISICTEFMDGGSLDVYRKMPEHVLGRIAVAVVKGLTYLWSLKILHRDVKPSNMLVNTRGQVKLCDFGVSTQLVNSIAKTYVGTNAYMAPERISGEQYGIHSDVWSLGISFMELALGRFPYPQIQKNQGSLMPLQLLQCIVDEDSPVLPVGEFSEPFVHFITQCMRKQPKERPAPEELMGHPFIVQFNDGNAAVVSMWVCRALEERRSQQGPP

[7] = target: Mitogen-activated protein kinase kinase kinase 4 (Homo sapiens, UniProt Q9Y6R4)
[8] = target: T2, RNA cytidine acetyltransferase (Homo sapiens, UniProt Q9H0A0)
T2 sequence (Q9H0A0 whole entry): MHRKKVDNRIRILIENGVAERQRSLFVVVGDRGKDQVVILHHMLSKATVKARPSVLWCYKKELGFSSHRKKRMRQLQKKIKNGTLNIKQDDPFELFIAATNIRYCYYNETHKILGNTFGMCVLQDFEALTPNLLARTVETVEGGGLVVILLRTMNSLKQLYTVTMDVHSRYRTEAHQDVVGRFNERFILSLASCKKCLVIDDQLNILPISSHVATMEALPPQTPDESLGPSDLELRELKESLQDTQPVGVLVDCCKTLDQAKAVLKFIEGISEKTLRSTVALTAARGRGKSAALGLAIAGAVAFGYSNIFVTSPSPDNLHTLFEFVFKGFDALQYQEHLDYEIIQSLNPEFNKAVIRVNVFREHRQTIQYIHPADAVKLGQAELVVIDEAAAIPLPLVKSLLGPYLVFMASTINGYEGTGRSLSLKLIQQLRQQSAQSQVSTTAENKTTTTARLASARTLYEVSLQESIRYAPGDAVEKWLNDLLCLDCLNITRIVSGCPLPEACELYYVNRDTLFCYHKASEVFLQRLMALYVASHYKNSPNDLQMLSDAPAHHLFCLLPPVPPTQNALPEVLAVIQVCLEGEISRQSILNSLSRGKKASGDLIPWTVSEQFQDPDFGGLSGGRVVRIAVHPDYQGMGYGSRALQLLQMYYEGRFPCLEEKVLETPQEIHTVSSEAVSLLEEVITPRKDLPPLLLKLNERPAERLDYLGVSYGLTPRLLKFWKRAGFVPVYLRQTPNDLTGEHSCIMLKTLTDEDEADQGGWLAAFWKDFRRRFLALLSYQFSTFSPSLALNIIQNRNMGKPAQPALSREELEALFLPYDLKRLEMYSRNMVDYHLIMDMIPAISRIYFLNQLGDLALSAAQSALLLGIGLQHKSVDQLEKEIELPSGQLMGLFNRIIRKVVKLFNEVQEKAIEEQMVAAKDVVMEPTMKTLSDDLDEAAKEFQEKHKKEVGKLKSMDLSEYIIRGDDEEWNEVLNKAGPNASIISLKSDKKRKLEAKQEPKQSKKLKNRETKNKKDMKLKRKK

[9] = target: Serine/threonine-protein kinase PAK 2 (Homo sapiens, UniProt Q13177)
[10] = target: cAMP-dependent protein kinase catalytic subunit beta (Homo sapiens, UniProt P22694)
[11] = target: Ribosomal protein S6 kinase alpha-6 (Homo sapiens, UniProt Q9UK32)
[12] = target: Serine/threonine-protein kinase 16 (Homo sapiens, UniProt O75716)
[13] = target: T3, Serine/threonine-protein kinase TAO3 (Homo sapiens, UniProt Q9H2K8)
T3 sequence (Q9H2K8 whole entry): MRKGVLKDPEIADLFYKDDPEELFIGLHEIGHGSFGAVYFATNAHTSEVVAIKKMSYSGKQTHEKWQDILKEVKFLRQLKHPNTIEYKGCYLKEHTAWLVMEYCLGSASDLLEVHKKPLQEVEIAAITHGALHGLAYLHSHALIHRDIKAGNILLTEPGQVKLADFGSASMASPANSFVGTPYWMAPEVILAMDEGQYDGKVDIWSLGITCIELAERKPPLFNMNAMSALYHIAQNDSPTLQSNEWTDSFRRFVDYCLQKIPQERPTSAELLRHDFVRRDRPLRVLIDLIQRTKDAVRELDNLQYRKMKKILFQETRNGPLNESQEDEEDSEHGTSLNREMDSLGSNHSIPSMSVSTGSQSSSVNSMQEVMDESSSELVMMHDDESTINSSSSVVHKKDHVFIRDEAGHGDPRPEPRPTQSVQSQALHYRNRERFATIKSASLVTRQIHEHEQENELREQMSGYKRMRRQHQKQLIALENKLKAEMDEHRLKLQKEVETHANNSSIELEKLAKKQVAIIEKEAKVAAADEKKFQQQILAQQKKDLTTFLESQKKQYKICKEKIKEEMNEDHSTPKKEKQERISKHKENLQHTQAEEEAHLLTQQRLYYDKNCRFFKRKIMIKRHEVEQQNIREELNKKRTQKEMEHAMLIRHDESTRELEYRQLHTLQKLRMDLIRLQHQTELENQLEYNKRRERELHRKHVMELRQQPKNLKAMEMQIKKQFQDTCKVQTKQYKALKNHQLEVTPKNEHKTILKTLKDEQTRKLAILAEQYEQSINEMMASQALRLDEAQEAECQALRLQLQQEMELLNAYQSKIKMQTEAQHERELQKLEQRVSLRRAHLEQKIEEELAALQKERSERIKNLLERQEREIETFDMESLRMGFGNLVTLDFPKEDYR

[14] = target: Activated CDC42 kinase 1 (Homo sapiens, UniProt Q07912)
Also: in the data inactive means no Kd found up to 30 µM.

Sequence of Adenosine kinase (P55263 whole entry): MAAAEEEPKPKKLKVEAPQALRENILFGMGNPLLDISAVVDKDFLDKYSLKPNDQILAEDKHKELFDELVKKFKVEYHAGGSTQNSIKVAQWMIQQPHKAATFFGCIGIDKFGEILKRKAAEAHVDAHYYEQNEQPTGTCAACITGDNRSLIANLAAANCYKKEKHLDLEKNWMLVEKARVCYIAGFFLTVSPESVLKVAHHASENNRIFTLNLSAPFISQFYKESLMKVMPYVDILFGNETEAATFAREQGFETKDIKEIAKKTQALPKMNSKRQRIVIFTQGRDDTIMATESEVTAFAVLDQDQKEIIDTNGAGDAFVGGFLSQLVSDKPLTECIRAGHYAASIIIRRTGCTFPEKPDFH
Sequence of Serine/threonine-protein kinase PAK 2 (Q13177 whole entry): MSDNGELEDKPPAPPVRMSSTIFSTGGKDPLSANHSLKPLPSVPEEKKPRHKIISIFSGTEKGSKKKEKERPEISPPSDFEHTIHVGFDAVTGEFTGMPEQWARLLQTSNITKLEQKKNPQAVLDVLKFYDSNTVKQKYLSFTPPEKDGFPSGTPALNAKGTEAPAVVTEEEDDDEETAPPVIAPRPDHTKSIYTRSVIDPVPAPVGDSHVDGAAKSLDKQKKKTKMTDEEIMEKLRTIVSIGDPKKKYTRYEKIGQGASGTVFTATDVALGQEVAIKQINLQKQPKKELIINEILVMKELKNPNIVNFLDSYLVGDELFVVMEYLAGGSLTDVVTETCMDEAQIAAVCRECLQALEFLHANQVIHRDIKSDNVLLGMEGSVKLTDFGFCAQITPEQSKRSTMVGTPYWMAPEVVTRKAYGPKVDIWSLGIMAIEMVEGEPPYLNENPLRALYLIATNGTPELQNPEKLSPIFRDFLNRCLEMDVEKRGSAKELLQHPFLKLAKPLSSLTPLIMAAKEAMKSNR
Sequence of Activated CDC42 kinase 1 (Q07912 whole entry): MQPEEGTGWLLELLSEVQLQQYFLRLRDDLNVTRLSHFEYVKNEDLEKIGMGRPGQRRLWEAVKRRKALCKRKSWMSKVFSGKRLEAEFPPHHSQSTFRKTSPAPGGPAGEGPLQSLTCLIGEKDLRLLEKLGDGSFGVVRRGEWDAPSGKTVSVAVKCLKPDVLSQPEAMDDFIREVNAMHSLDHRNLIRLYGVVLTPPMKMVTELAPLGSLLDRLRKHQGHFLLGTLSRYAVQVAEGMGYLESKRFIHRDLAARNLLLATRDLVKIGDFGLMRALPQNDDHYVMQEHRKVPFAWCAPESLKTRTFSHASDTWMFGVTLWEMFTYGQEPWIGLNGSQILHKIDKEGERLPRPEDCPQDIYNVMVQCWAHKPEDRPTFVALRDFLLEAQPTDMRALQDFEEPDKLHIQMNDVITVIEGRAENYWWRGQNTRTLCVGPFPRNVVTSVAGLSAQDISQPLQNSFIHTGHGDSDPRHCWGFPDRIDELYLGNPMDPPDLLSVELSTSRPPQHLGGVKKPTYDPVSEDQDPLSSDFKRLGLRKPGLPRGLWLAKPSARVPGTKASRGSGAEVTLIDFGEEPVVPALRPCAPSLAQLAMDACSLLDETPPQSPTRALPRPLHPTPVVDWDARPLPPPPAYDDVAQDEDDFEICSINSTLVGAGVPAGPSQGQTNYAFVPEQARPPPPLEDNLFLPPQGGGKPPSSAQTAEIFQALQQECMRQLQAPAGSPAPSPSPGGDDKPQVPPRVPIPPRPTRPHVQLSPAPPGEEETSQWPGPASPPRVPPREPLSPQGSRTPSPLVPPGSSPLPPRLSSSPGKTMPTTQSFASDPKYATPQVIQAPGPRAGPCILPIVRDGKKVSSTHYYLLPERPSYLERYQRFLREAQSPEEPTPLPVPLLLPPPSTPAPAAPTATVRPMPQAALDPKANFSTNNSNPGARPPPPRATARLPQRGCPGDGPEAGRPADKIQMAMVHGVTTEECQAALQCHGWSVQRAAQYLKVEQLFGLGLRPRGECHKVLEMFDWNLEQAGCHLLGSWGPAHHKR
Sequence of Serine/threonine-protein kinase 16 (O75716 whole entry): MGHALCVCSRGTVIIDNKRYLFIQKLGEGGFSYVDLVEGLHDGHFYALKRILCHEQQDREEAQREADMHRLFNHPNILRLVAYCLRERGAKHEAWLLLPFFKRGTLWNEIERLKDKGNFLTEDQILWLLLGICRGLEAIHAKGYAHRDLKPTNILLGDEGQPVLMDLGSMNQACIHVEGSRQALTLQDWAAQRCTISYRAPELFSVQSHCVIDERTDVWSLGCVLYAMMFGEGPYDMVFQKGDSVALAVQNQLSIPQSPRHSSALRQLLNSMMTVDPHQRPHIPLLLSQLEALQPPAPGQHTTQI
Sequence of Ephrin type-A receptor 4 (P54764 whole entry): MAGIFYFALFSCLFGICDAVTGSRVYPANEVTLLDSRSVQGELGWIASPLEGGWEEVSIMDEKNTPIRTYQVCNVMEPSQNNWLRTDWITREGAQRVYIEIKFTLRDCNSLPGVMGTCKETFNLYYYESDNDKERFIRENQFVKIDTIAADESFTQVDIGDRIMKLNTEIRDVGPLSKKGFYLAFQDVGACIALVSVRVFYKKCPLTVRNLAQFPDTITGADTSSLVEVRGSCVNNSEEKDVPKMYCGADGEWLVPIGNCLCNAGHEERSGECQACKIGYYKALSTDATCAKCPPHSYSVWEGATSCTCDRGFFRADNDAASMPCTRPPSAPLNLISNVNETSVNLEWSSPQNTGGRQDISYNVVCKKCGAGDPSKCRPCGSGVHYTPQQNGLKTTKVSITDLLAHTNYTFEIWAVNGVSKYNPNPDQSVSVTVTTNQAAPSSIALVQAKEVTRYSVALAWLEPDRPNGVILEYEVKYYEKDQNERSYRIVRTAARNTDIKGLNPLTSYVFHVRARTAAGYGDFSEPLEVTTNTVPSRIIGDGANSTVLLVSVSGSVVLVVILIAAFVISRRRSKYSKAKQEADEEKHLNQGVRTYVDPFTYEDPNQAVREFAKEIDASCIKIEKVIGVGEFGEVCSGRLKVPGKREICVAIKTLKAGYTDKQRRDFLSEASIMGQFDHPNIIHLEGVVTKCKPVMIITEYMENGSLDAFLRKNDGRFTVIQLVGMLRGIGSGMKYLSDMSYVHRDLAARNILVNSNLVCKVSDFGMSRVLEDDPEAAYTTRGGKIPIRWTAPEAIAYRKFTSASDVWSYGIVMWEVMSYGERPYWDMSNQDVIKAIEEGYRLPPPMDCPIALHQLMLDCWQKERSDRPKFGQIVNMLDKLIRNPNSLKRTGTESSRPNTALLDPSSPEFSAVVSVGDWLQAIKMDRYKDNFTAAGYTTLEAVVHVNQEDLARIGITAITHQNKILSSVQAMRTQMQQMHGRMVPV
Sequence of Mitogen-activated protein kinase kinase kinase 4 (Q9Y6R4 whole entry): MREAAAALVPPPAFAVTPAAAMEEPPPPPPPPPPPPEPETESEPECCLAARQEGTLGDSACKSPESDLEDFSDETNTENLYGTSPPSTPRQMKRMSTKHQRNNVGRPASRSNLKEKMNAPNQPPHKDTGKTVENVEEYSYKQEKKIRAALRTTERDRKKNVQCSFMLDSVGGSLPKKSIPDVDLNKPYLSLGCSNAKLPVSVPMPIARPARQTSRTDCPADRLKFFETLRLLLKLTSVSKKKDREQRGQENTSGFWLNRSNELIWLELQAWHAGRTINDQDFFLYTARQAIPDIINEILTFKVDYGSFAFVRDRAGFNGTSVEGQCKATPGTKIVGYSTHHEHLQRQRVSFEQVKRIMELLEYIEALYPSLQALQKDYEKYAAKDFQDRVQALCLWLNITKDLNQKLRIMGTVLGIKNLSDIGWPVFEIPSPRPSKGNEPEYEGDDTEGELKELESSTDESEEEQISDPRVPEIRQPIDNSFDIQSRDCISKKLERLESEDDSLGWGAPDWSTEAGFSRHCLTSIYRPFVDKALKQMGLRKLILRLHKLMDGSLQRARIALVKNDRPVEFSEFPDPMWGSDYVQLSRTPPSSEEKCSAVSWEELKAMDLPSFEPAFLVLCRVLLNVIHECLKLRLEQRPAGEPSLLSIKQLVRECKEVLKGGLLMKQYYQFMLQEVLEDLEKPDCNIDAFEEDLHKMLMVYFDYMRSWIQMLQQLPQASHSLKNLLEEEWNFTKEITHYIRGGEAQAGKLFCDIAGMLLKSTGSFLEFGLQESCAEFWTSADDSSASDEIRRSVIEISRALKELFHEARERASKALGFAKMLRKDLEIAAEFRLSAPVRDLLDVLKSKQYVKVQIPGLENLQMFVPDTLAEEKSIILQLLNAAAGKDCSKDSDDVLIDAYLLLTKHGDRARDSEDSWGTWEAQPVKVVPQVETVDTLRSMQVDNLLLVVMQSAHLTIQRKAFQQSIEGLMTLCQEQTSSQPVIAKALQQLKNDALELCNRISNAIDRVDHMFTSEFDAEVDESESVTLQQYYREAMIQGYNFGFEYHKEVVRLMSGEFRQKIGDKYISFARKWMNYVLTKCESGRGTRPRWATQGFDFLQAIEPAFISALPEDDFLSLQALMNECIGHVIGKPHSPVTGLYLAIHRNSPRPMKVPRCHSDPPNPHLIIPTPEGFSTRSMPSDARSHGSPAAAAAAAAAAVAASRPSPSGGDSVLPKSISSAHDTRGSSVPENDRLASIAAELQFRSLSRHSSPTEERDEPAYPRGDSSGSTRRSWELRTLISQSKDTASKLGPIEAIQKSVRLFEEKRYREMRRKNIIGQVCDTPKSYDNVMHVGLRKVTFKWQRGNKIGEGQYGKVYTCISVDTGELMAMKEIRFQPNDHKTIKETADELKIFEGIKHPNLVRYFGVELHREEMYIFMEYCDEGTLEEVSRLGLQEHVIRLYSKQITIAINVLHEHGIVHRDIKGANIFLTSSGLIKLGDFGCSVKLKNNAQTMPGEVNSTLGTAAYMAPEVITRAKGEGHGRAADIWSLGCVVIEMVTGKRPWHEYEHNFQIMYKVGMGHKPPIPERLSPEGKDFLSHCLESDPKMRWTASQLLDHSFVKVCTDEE

Kd [1]	Kd [2]	Kd [3]	Kd [4]	Kd [5]	Kd [6]	Kd [7]	Kd [8]	Kd [9]	Kd [10]	Kd [11]	Kd [12]	Kd [13]	Kd [14]	SMILES
> 30 µM (inactive)	> 30 µM (inactive)	> 30 µM (inactive)	> 30 µM (inactive)	> 30 µM (inactive)	9.43 µM (active)	2.19 µM (active)	> 30 µM (inactive)	> 30 µM (inactive)	> 30 µM (inactive)	> 30 µM (inactive)	> 30 µM (inactive)	> 30 µM (inactive)	1.01 µM (active)	CCN1CCN(Cc2ccc(-c3cc4c(N[C@H](C)c5ccccc5)ncnc4[nH]3)cc2)CC1 [AEE-788]
> 30 µM (inactive)	> 30 µM (inactive)	> 30 µM (inactive)	> 30 µM (inactive)	> 30 µM (inactive)	> 30 µM (inactive)	> 30 µM (inactive)	> 30 µM (inactive)	> 30 µM (inactive)	> 30 µM (inactive)	> 30 µM (inactive)	> 30 µM (inactive)	> 30 µM (inactive)	> 30 µM (inactive)	CC[C@H](Nc1ncnc2[nH]cnc12)c1nc2cccc(F)c2c(=O)n1-c1ccccc1 [IDELALISIB]
> 30 µM (inactive)	0.007 µM	> 30 µM (inactive)	> 30 µM (inactive)	> 30 µM (inactive)	2 µM (active)	> 30 µM (inactive)	> 30 µM (inactive)	> 30 µM (inactive)	> 30 µM (inactive)	> 30 µM (inactive)	> 30 µM (inactive)	> 30 µM (inactive)	> 30 µM (inactive)	CNS(=O)(=O)Nc1nccc(Cc2c(C)c3ccc(Oc4ncccn4)cc3oc2=O)c1F [AVUTOMETINIB]
> 30 µM (inactive)	> 30 µM (inactive)	> 30 µM (inactive)	> 30 µM (inactive)	> 30 µM (inactive)	> 30 µM (inactive)	> 30 µM (inactive)	> 30 µM (inactive)	> 30 µM (inactive)	> 30 µM (inactive)	> 30 µM (inactive)	> 30 µM (inactive)	> 30 µM (inactive)	> 30 µM (inactive)	CC(=O)Nc1cccc(-n2c(=O)n(C3CC3)c(=O)c3c(Nc4ccc(I)cc4F)n(C)c(=O)c(C)c32)c1 [TRAMETINIB]
> 30 µM (inactive)	> 30 µM (inactive)	> 30 µM (inactive)	> 30 µM (inactive)	> 30 µM (inactive)	> 30 µM (inactive)	> 30 µM (inactive)	> 30 µM (inactive)	> 30 µM (inactive)	> 30 µM (inactive)	> 30 µM (inactive)	> 30 µM (inactive)	> 30 µM (inactive)	> 30 µM (inactive)	CO[C@H]1C[C@@H]2CC[C@@H](C)[C@@](O)(O2)C(=O)C(=O)N2CCCC[C@H]2C(=O)O[C@H]([C@H](C)C[C@@H]2CC[C@@H](OCCO)[C@H](OC)C2)CC(=O)[C@H](C)/C=C(\C)[C@@H](O)[C@@H](OC)C(=O)[C@H](C)C[C@H](C)/C=C/C=C/C=C/1C [EVEROLIMUS]
> 30 µM (inactive)	> 30 µM (inactive)	> 30 µM (inactive)	> 30 µM (inactive)	> 30 µM (inactive)	> 30 µM (inactive)	> 30 µM (inactive)	> 30 µM (inactive)	> 30 µM (inactive)	> 30 µM (inactive)	> 30 µM (inactive)	> 30 µM (inactive)	> 30 µM (inactive)	> 30 µM (inactive)	CN1N=C(N)c2cn([C@@H]3O[C@H](COP(=O)(O)O)[C@@H](O)[C@H]3O)c3ncnc1c23 [TRICIRIBINE PHOSPHATE]
> 30 µM (inactive)	> 30 µM (inactive)	> 30 µM (inactive)	> 30 µM (inactive)	> 30 µM (inactive)	> 30 µM (inactive)	> 30 µM (inactive)	> 30 µM (inactive)	> 30 µM (inactive)	> 30 µM (inactive)	> 30 µM (inactive)	> 30 µM (inactive)	> 30 µM (inactive)	> 30 µM (inactive)	O=c1sn(-c2cccc3ccccc23)c(=O)n1Cc1ccccc1 [TIDEGLUSIB]
> 30 µM (inactive)	> 30 µM (inactive)	> 30 µM (inactive)	> 30 µM (inactive)	> 30 µM (inactive)	> 30 µM (inactive)	> 30 µM (inactive)	> 30 µM (inactive)	> 30 µM (inactive)	> 30 µM (inactive)	> 30 µM (inactive)	> 30 µM (inactive)	> 30 µM (inactive)	> 30 µM (inactive)	CC(C)Nc1cc(-c2c[nH]c(C(=O)N[C@H](CO)c3cccc(Cl)c3)c2)c(Cl)cn1 [ULIXERTINIB]

SMILES	Kd [1]	Kd [2]	Kd [3]	Kd [4]	Kd [5]	Kd [6]	Kd [7]	Kd [8]	Kd [9]	Kd [10]	Kd [11]	Kd [12]	Kd [13]	Kd [14]
C=CC(=O)N1CCC(Oc2cc3c(Nc4ccc(Cl)c(Cl)c4F)ncnc3cc2OC)CC1 [POZIOTINIB]	> 30 µM (inactive)	> 30 µM (inactive)	> 30 µM (inactive)	> 30 µM (inactive)	7.06 µM (active)	> 30 µM (inactive)	> 30 µM (inactive)	> 30 µM (inactive)	> 30 µM (inactive)	> 30 µM (inactive)	> 30 µM (inactive)	> 30 µM (inactive)	> 30 µM (inactive)	> 30 µM (inactive)
CN1CC[C@@H](c2c(O)cc(O)c3c(=O)cc(-c4ccccc4Cl)oc23)[C@@H]1CO	> 30 µM (inactive)	> 30 µM (inactive)	> 30 µM (inactive)	> 30 µM (inactive)	> 30 µM (inactive)	> 30 µM (inactive)	> 30 µM (inactive)	> 30 µM (inactive)	> 30 µM (inactive)	> 30 µM (inactive)	> 30 µM (inactive)	> 30 µM (inactive)	> 30 µM (inactive)	> 30 µM (inactive)
